The values below come from patent US20040198789A1, “Lercanidipine/ARB/diuretic therapeutic combinations” (Recordati Ireland Limited, priority 2003, published 2004).

One series addresses T1, AT1 receptor (Homo sapiens, UniProt P30556).
T1 sequence (P30556 1-359): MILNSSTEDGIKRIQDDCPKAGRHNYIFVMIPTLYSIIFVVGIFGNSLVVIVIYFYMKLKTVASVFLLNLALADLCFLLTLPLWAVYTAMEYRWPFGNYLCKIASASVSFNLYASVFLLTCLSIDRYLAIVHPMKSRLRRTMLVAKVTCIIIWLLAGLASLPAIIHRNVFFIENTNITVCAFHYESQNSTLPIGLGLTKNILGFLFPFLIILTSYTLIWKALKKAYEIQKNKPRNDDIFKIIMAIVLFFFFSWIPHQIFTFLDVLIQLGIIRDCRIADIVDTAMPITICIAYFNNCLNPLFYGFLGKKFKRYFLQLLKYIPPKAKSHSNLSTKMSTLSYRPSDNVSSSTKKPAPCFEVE
To be noted: cited from earlier work.

For series [1] the following is noted: cited from earlier work; for time of peak serum/plasma concentration: following oral administration; for terminal half-life: in vivo.
The next series addresses ACE (Homo sapiens, UniProt P12821). Conditions: cited from earlier work.
The test system of series [2] is reperfusion-induced hypertension in uninephrectomized anesthetized rats. Description: Model of acute angiotensin-mediated renal hypertension in anesthetized rats (SBP, DBP, HR). Type of series: in vivo, rat. On the procedure: Male Sprague-Dawley rats, weighing 250-300 g, were anaesthetized with pentobarbital sodium (35 mg/kg, i.p.) and placed on a thermic blanket. The temperature was maintained at 37° C. with a thermoregulator via a rectal probe. The animals were tracheotomized to facilitate spontaneous breathing. A polyethylene catheter was placed in the left jugular vein to allow for infusion of pentobarbital sodium to maintain anesthesia. The left femoral vein and artery were cannulated with polyethylene catheters to allow drugs administration and to monitor blood pressure, respectively.
Animals then underwent a left nephrectomy by excising the left kidney via a flank incision. The right kidney and renal vein, artery and ureter were then exposed via a right retroperitoneal incision, under a dissecting microscope. Silk threads were placed around both vessels and ureter. The cavity was then covered with Vaseline oil.
After 30-60 minutes of basal recordings of arterial blood pressure and heart rate the threads around the renal vessels and ureter were tied close to the renal hilum to induce complete renal ischemia of the right kidney. After 2 hours of ischemia, the threads were removed to allow renal reperfusion and urine output.
For irbesartan experiments and comparisons, control (vehicle) or drug (irbesartan (100 μg/kg), lercanidipine (7.5 μg/kg), or both lercanidipine (7.5 μg/kg) and irbesartan (100 μg/kg)) were administered intravenously at 5 min after reperfusion was begun.
Results were expressed as mean values ±S.E. (in the tables) and in percent change observed.
To evaluate the effects of drugs administration on blood pressure and heart rate within each group, two-way ANOVA and Dunnet's test were used (“within treatment”). To evaluate the statistical differences among the treatment groups, data are analyzed using a three-way ANOVA (analysis of variance) with repeated measures on factor time and pre-planned multiple comparisons. The analysis was performed using, for each treatment, delta values (log transformation). […] (“between treatments”).

Series [3] shares this test system. The description is as above. Format: in vivo, rat. This is another data set of the same source.
The mark [4] stands for this setting: between treatments, three-way ANOVA on delta values, lercanidipine 7.5 μg/kg, irbesartan 100 μg/kg i.v.
The mark [5] stands for this setting: irbesartan 100 μg/kg i.v., n=6, time 0 min, basal, pre-drug.
[6] abbreviates: irbesartan 100 μg/kg i.v., n=6, time 120 min, end of ischemia, pre-drug.
Setting [7] is: irbesartan 100 μg/kg i.v., n=6, time 130 min, 5 min after drug.
Where [8] appears, read: irbesartan 100 μg/kg i.v., n=6, time 135 min, 10 min after drug.
Where [9] appears, read: irbesartan 100 μg/kg i.v., n=6, time 150 min, 25 min after drug.
[10] abbreviates: irbesartan 100 μg/kg i.v., n=6, time 165 min, 40 min after drug.
[11] abbreviates: irbesartan 100 μg/kg i.v., n=6, time 180 min, 55 min after drug.
Setting [12] is: irbesartan 100 μg/kg i.v., n=6, time […], 5 min reperfusion, pre-drug.
Where [13] appears, read: valsartan 30 μg/kg i.v., n=7, time 0 min, basal, pre-drug.
Where [14] appears, read: valsartan 30 μg/kg i.v., n=7, time 120 min, end of ischemia, pre-drug.
Where [15] appears, read: valsartan 30 μg/kg i.v., n=7, time 130 min, 5 min after drug.
Setting [16] is: valsartan 30 μg/kg i.v., n=7, time 135 min, 10 min after drug.
[17] abbreviates: valsartan 30 μg/kg i.v., n=7, time 150 min, 25 min after drug.
The mark [18] stands for this setting: valsartan 30 μg/kg i.v., n=7, time 165 min, 40 min after drug.
Setting [19] is: valsartan 30 μg/kg i.v., n=7, time 180 min, 55 min after drug.
Setting [20] is: valsartan 30 μg/kg i.v., n=7, time […], 5 min reperfusion, pre-drug.
Setting [21] is: between treatments, three-way ANOVA on delta values, lercanidipine 10 μg/kg, valsartan 30 μg/kg i.v.

Chain of ACE (P12821 30-1306, species assumed): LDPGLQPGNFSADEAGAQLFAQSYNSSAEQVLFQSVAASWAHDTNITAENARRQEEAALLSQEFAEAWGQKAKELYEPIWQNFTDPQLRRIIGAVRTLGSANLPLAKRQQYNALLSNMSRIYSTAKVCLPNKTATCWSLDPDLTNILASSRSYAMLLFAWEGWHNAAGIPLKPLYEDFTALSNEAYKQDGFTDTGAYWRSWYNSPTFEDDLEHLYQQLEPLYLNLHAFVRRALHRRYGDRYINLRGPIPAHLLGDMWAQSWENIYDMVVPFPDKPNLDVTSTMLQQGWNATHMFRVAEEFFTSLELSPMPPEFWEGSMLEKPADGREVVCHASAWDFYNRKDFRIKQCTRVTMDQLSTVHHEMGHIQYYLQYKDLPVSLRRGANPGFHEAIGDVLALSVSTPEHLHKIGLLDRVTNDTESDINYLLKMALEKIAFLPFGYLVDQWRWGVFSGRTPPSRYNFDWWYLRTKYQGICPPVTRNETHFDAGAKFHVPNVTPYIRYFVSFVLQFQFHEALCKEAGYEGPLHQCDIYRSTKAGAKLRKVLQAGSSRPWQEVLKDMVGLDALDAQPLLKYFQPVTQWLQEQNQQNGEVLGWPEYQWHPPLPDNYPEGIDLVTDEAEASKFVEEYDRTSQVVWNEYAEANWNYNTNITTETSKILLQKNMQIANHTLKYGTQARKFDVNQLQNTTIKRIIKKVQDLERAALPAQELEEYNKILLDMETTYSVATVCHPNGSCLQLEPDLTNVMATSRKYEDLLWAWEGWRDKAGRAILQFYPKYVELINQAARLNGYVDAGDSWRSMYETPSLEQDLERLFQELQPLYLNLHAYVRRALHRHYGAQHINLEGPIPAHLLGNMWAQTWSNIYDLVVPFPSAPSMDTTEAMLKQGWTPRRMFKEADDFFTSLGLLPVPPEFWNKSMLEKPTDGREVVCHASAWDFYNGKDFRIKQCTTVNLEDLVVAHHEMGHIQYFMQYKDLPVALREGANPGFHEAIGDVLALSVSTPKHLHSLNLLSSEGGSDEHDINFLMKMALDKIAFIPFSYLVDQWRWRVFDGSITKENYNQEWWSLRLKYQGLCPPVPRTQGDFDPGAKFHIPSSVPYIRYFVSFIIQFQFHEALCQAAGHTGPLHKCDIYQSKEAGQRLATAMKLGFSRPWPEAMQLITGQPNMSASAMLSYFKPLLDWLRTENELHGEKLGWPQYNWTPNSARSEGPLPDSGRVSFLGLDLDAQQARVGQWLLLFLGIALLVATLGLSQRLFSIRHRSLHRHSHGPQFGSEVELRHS

Turning to `CCOc1nc2cccc(C(=O)O)c2n1Cc1ccc(-c2ccccc2-c2nnn[nH]2)cc1` [Candesartan free acid], the “greater affinity for the AT1 receptor than the AT2 receptor” value on AT1 receptor is listed as < 10,000.

Consider `CCCCc1ncc(/C=C(\Cc2cccs2)C(=O)O)n1Cc1ccc(C(=O)O)cc1` [Eprosartan, (E)-2-butyl-1 (p-carboxybenzyl)-α-2-thienylmethylimidazole-5-acrylic acid], for which the “affinity for the AT1 receptor relative to the AT2 receptor” value at AT1 receptor is reported as “about 1000 times”. In series [1], the “time of peak serum/plasma concentration” value is 1 to 2 h.

As for `CCCc1nc2c(C)cc(-c3nc4ccccc4n3C)cc2n1Cc1ccc(-c2ccccc2C(=O)O)cc1` [Telmisartan, 4′-[1,4′-dimethyl-2[-propyl[2,6′-bi-1H-benzimidazol]-1′-yl)methyl]-[1,1′-biphenyl]-2-carboxylic acid], the “inhibition of ACE” value at ACE is given as “does not inhibit”. In addition, in series [1], the “time of peak serum/plasma concentration” value is 0.5 to 1 h. For the same molecule, in series [1] (intravenous or oral administration), the “administered dose eliminated unchanged in feces via biliary excretion” value is over 97%.

For the molecule `CCCCc1nc(Cl)c(C(=O)O)n1Cc1ccc(-c2ccccc2-c2nn[nH]n2)cc1` [active carboxylic acid metabolite], in series [1], the “time of peak serum/plasma concentration” value was 3 to 4 h and the terminal half-life was 6 to 9 h.

`CCCCC1=NC2(CCCC2)C(=O)N1Cc1ccc(-c2ccccc2-c2nnn[nH]2)cc1` [irbesartan, 2-butyl-3-[[2′-(1H-tetrazol-5-yl)[1,1′-biphenyl]-4-yl]methyl]-1,3-diazaspiro[4.4]non-1-en-4-one]: the “greater affinity for AT1 receptor compared to AT2 receptor” value at AT1 receptor is reported as “more than 8500 fold”. For the same molecule, the “Diastolic blood pressure: general differences among groups: p vs Vehicle” value in series [2] (setting [4]) is “p < 0.05”. Also, the “Heart rate differences among groups: p vs Vehicle” value in series [2] (setting [4]) was “ns”. Besides, the “Systolic blood pressure differences among groups: p vs Vehicle” value in series [2] (setting [4]) is given as “ns”. The DBP is listed as 63.8 ± 3.5 mmHg in series [2] (setting [5]); 59.0 ± 2.0 mmHg in series [2] (setting [6]); 86.3 ± 5.8 b mmHg in series [2] (setting [7]); 90.0 ± 5.6 b mmHg in series [2] (setting [8]); 91.7 ± 6.1 b mmHg in series [2] (setting [9]); 85.7 ± 6.6 b mmHg in series [2] (setting [10]). In addition, the DBP result is reported as “b 79.3 ± 8.1 b mmHg” in series [2] (setting [11]) and 107.0 ± 4.8 mmHg in series [2] (setting [12]). The HR stood at 373.3 ± 14.5 beats/min in series [2] (setting [5]); 360.0 ± 13.4 beats/min in series [2] (setting [6]); 341.7 ± 13.8 beats/min in series [2] (setting [7]); 346.7 ± 13.6 beats/min in series [2] (setting [8]); 361.7 ± 7.5 a beats/min in series [2] (setting [9]); 363.3 ± 11.8 a beats/min in series [2] (setting [10]). The HR in series [2] (setting [11]) was 375.0 ± 13.1 b beats/min; in series [2] (setting [12]) it was 336.7 ± 14.1 beats/min. Besides, the SBP in series [2] (setting [5]) was 113.3 ± 6.7 mmHg; in series [2] (setting [6]) it was 112.0 ± 5.6 mmHg; in series [2] (setting [7]) it was 134.3 ± 5.5 b mmHg; in series [2] (setting [8]) it was 138.7 ± 5.3 b mmHg; in series [2] (setting [9]) it was 139.0 ± 5.7 b mmHg; in series [2] (setting [10]), 136.0 ± 7.6 b mmHg. The SBP in series [2] (setting [11]) was 125.7 ± 8.3 mmHg; in series [2] (setting [12]), 153.7 ± 5.1 mmHg. For the same molecule, the “effect on heart rate (in words)” value in series [2] (lercanidipine 7.5 μg/kg, irbesartan 100 μg/kg i.v., alone or together) is reported as “no statistically significant change in heart rate”. The “effect on blood pressure (in words)” value in series [2] (lercanidipine 7.5 μg/kg, irbesartan 100 μg/kg i.v., alone or together, 5 min after reperfusion) is “statistically significant decrease in both systolic and diastolic blood pressure”. Besides, on ACE, the “inhibition of ACE” value is reported as “does not inhibit”. In addition, the “time of peak serum/plasma concentration” value in series [1] was 1.5 to 2 h.

For `CCCCc1nc(Cl)c(CO)n1Cc1ccc(-c2ccccc2-c2nnn[nH]2)cc1.[K]` [losartan, 2-butyl-4-chloro-1-[p-(o-1H-tetrazol-5-ylphenyl)-benzyl]imidazole-5-methanol monopotassium salt], the “inhibition of ACE” value at ACE is reported as “does not inhibit”. Further, in series [1], the “time of peak serum/plasma concentration” value was 1 h and the terminal half-life result is “about 2 hours”.

On to `CCCc1nc(C(C)(C)O)c(C(=O)O)n1Cc1ccc(-c2ccccc2-c2nnn[nH]2)cc1` [olmesartan, 4-(1-hydroxy-1-methylethyl)-2-propyl-1-[p-(o-1H-tetrazol-5-ylphenyl)benzyl]imidazole-5-carboxylic acid], for which the “inhibition of ACE” value on ACE was “does not inhibit”. Moreover, the “cleared in the urine” value in series [1] (following oral administration of olmesartan) is on record as 35 to 50%. The “time of peak serum/plasma concentration” value in series [1] was 1 to 2 h.

On to `CCCCC(=O)N(Cc1ccc(-c2ccccc2-c2nnn[nH]2)cc1)[C@H](C(=O)O)C(C)C` [valsartan, N-(1-oxopentyl)-N-[[2′-(1H-tetrazol-5-yl)[1,1′-biphenyl]-4-yl]methyl]-L-valine], for which the DBP was 66.7 ± 4.1 mmHg in series [2] (setting [13]); 62.1 ± 4.4 mmHg in series [2] (setting [14]); 90.4 ± 4.4 b mmHg in series [2] (setting [15]); 87.1 ± 5.2 b mmHg in series [2] (setting [16]); 81.4 ± 4.5 b mmHg in series [2] (setting [17]); 79.7 ± 4.6 b mmHg in series [2] (setting [18]). The values for the DBP in series [2] (setting [19]) and in series [2] (setting [20]) were 77.3 ± 4.7 b mmHg and 108.1 ± 3.8 mmHg, respectively. The HR in series [2] (setting [13]) was 372.9 ± 8.4 beats/min; in series [2] (setting [14]), 366.4 ± 10.9 beats/min; in series [2] (setting [15]), 372.1 ± 10.0 beats/min; in series [2] (setting [16]), 381.4 ± 7.3 beats/min; in series [2] (setting [17]), 382.1 ± 6.9 beats/min; in series [2] (setting [18]) it was 375.7 ± 7.6 beats/min. The HR in series [2] (setting [19]) came out at 368.6 ± 6.7 beats/min; in series [2] (setting [20]), 362.1 ± 12.9 beats/min. Moreover, the SBP in series [2] (setting [13]) came to 126.4 ± 5.5 mmHg; in series [2] (setting [14]), 120.1 ± 4.3 mmHg; in series [2] (setting [15]), 145.6 ± 1.7 mmHg; in series [2] (setting [16]) it was 143.4 ± 1.0 a mmHg; in series [2] (setting [17]), 136.7 ± 1.9 b mmHg; in series [2] (setting [18]), 135.6 ± 4.0 b mmHg. In addition, the SBP turned out to be 130.0 ± 3.9 b mmHg in series [2] (setting [19]) and 161.0 ± 2.4 mmHg in series [2] (setting [20]). Besides, on ACE, the “inhibition of ACE” value is listed as “does not inhibit”. Further, the “time of peak serum/plasma concentration” value in series [1] is 2 to 4 h. The “Diastolic blood pressure: general differences among groups: p vs Vehicle” value in series [3] (setting [21]) was “p < 0.01”. In addition, in series [3] (setting [21]), the “Heart rate: general differences among groups: p vs Vehicle” value is on record as “ns”. Moreover, the “Systolic blood pressure: general differences among groups: p vs Vehicle” value in series [3] (setting [21]) is reported as “ns”. Further, the “effect on heart rate (in words)” value in series [3] (lercanidipine 10 μg/kg, valsartan 30 μg/kg i.v., alone or together) was “no statistically significant modification on heart rate”. Also, the “time of statistically significant decrease in diastolic blood pressure after administration” value in series [3] (within treatment vs […], lercanidipine 10 μg/kg or valsartan 30 μg/kg i.v.) was 5 to 55 min.
